Publication PMC3534858 (Bioorganic & medicinal chemistry letters, 2012)

Columns and labels:
[1] = target: T1, mouse TP receptor (Mus musculus, UniProt P30987); assay: Suppression of signaling through mouse TP receptor; assay type: cell-based
T1 sequence (P30987 1-341): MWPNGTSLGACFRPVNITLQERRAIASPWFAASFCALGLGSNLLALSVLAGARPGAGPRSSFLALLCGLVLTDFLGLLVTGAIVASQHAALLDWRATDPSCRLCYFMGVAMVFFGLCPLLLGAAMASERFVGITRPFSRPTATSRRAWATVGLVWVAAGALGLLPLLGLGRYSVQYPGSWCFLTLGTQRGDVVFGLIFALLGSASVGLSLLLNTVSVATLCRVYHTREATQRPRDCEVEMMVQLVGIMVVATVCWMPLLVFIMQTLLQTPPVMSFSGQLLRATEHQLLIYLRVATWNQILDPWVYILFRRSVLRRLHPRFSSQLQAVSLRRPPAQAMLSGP

[2] = In vivo pharmacokinetics of 7 in mice; conditions: mouse, plasma, iv, 1 mg/kg
[3] = Intrinsic clearance by mouse liver microsomes; assay type: in vitro ADME; conditions: for CLHEP (predicted hepatic clearance): estimated from Clint, mouse hepatic blood flow QH 90 mL/min/kg
[4] = test system: human EP1 receptor; conditions: cited from earlier work
[5] = test system: human thromboxane (TP) receptor; conditions: cited from earlier work
[6] = several species; cited from earlier work
[7] = target: T2, mouse EP1 receptor (Mus musculus, UniProt P35375); conditions: for Schild regression slope m: representative experiment, six antagonist concentrations, agonist 17PTPGE2
T2 sequence (P35375 1-405): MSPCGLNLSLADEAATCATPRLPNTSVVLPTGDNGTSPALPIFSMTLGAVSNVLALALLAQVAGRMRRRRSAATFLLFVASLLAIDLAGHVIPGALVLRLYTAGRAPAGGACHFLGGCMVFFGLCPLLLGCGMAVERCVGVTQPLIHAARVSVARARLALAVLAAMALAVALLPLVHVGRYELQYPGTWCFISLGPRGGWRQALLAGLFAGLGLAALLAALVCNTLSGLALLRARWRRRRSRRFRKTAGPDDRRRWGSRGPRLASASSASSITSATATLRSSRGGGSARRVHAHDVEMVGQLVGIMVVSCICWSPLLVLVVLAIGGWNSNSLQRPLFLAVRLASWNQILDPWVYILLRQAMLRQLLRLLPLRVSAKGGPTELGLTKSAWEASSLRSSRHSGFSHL

[8] = Metabolite identification in hepatic subcellular fractions; assay type: in vitro ADME; conditions: NADPH-independent hydrolysis and NADPH-dependent oxidation
[9] = test system: phenylephrine vasoconstriction; assay: Phenylephrine pressor response control in anesthetized mice; assay type: in vivo, mouse; conditions: phenylephrine 10 μg/kg; data not shown

Row | Compound | IC50 [1] [µM] | CLHEP (predicted hepatic clearance) [3] [mL/min/kg] | CLint scaled ([3]; mouse, liver microsomes) [mL/min/kg] | further results
1 | O=C(O)c1cccc(Cc2cc(Cl)ccc2OCc2ccc(Cl)cc2F)n1 [Compound 7, reference compound] | 0.912 | 43.6 | 84.7 | Concentration suppressing mouse TP signaling relative to human receptor ([1]; mouse TP vs human TP): 100 fold; half-life [2]: > 1 h; Affinity for the human EP1 receptor [4]: good affinity; Interaction with the human thromboxane (TP) receptor [5]: high-affinity interaction; Stability in microsomes and S9 fractions [6]: stable; Kd [7]: 0.0521 µM; Functional antagonism of mEP1 in vitro ([7]; Schild analysis): functional antagonist of mEP1; Schild regression slope m [7]: 0.953 ± 0.085
2 | O=C(NCC1CC1)c1cccc(Cc2cc(Cl)ccc2OCc2ccc(Cl)cc2F)n1 [Compound 8] | > 1 | 89.3 | 11400 | 
3 | O=C(c1cccc(Cc2cc(Cl)ccc2OCc2ccc(Cl)cc2F)n1)N1CCCC1 [Compound 9] | > 1 |  |  | mEP1 pKD ([7]; Schild analysis, mean ± SEM of at least two independent experiments in duplicate): 4.80 ± 0.05
4 | O=C(NC1CCC1)c1cccc(Cc2cc(Cl)ccc2OCc2ccc(Cl)cc2F)n1 [Compound 10] | > 1 |  |  | 
5 | CC(C)CNC(=O)c1cccc(Cc2cc(Cl)ccc2OCc2ccc(Cl)cc2F)n1 [Compound 11] | > 1 | 89.2 | 9810 | Biotransformation in metabolite identification studies [8]: extensive biotransformation
6 | CCC(C)NC(=O)c1cccc(Cc2cc(Cl)ccc2OCc2ccc(Cl)cc2F)n1 (centres unmarked) [Compound 12] | > 1 |  |  | 
7 | CC(C)(C)NC(=O)c1cccc(Cc2cc(Cl)ccc2OCc2ccc(Cl)cc2F)n1 [Compound 13] | > 1 |  |  | 
8 | CCN(CC)C(=O)c1cccc(Cc2cc(Cl)ccc2OCc2ccc(Cl)cc2F)n1 [Compound 14] | > 1 | 88.9 | 7160 | 
9 | O=C(NC1CC2CCC1C2)c1cccc(Cc2cc(Cl)ccc2OCc2ccc(Cl)cc2F)n1 (centres unmarked) [Compound 15] | > 1 |  |  | 
10 | NC(=O)c1cccc(Cc2cc(Cl)ccc2OCc2ccc(Cl)cc2F)n1 [Compound 16] | > 1 |  |  | 
11 | O=C(NS(=O)(=O)c1ccc(Cl)cc1)c1cccc(Cc2cc(Cl)ccc2OCc2ccc(Cl)cc2F)n1 [Compound 17] | > 1 | 86.6 | 2260 | Clint (intrinsic clearance) ([3]; mouse, liver microsomes): less stable in mouse hepatic microsomes than 7; Effect of pretreatment on phenylephrine pressor activity [9]: unaffected; Biotransformation in metabolite identification studies [8]: extensive biotransformation; Kd [7]: 0.0865 µM; Schild regression slope m [7]: 1.20 ± 0.12
12 | O=C(NS(=O)(=O)c1cc(Cl)ccc1Cl)c1cccc(Cc2cc(Cl)ccc2OCc2ccc(Cl)cc2F)n1 [Compound 18] | > 1 |  |  | 
13 | Cc1ccc(S(=O)(=O)NC(=O)c2cccc(Cc3cc(Cl)ccc3OCc3ccc(Cl)cc3F)n2)cc1 [Compound 19] | > 1 | 88.4 | 5040 | 
14 | CCCS(=O)(=O)NC(=O)c1cccc(Cc2cc(Cl)ccc2OCc2ccc(Cl)cc2F)n1 [Compound 20] | > 1 |  |  | 
15 | O=C(NS(=O)(=O)c1ccc(Cl)c(Cl)c1)c1cccc(Cc2cc(Cl)ccc2OCc2ccc(Cl)cc2F)n1 [Compound 21] | > 1 | 87.4 | 2990 | 
